Assay results reported in patent US8431704B2, “Quinoline or isoquinoline substituted P2X7 antagonists” (Janssen Pharmaceutica NV, priority 2008, dated 2013).

Target: T1, P2X7 (Homo sapiens, UniProt Q99572)
T1 construct: endogenous in cells; host or cells: THP-1 human monocytic cell line
T1 sequence (Q99572 1-595): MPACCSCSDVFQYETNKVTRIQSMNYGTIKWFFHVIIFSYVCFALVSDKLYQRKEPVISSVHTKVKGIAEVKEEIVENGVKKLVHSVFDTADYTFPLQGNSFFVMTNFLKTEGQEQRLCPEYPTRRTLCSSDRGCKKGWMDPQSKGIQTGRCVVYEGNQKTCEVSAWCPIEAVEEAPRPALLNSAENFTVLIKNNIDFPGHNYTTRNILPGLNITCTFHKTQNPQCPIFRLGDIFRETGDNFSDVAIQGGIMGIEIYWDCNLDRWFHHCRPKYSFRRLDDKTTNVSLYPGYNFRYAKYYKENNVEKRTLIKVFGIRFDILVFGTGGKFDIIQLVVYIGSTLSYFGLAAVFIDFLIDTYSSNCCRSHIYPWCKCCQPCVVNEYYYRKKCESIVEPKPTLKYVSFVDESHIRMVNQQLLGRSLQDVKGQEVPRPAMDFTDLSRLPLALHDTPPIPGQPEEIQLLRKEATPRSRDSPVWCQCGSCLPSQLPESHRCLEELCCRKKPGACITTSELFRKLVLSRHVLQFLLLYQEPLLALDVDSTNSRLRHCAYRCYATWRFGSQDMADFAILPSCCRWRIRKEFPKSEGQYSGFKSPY
Experiment: THP-1 YoPro uptake assay (BzATP-stimulated Yo-Pro-1 uptake)
Format: cell-based
Conditions: Table F-10, THP-1 cells, read-out: mean pIC50 values for P2X7 antagonism (converted)
Protocol: The human monocytic cell line THP-1 was grown as a suspension culture in RPMI medium supplemented with 10% fetal bovine serum, penicillin/streptomycin (50 units/mL), 2 mM L-glutamine, and 20 μM 2-mercaptoethanol. Cells were maintained at a density below 0.5 million per mL. On the day of the assay, cells were washed twice with assay buffer, and then resuspended at 2 million per mL in assay buffer containing 2 μM Yo-Pro-1 (Invitrogen). The assay buffer contained (in mM): 280 sucrose, 5 KCl, 10 glucose, 10 HEPES, 5 N-methyl-D-glucamine. The cells were added at 200 k/well into poly-D-lysine-coated black-walled 96-well plates (Biocoat, Becton-Dickinson). Test compounds were dissolved in DMSO, and then added at the test concentration to each well of the 96-well plate. Concentration dependence of block was determined by exposing each well of cells in duplicate rows of a 96-well plate to a serial dilution of test compound. The concentration series usually started at 10 μM with a three-fold decrement in concentration. The final DMSO concentration seen by the cells was less than 0.5%. Cells were incubated with test compounds for 30 minutes at 37° C. A background reading was taken using a Gemini SpectraMax with 490 nm excitation and 530 nm emission. […] After incubation for 60 minutes at 37° C., an endpoint read was taken in the SpectraMax plate reader. The amount of block of the response was determined by comparing the fluorescence intensity in each well to the average of control wells on each plate. The control wells contained either a known antagonist of P2X7 (positive controls) or a concentration of DMSO equal to that in the test wells. Data were analyzed using a nonlinear regression program (Origin, OriginLab, MA). Results are reported as the −log of the IC50 (pIC50).

SMILES | IC50 [nM]
O=C(NCC(c1cnc(C(F)(F)F)nc1)N1CCOCC1)c1c(Cl)ccc2nc(N3CC(O)C3)ccc12 (stereo not shown) [Compound 458] | 3.02
O=C(NCC(c1cnc(C(F)(F)F)nc1)N1CCOCC1)c1c(Cl)ccc2nc(N3CCCOCC3)ccc12 (stereo not shown) [Compound 459] | 2.63
O=C(NCC(c1cnc(C(F)(F)F)nc1)N1CCOCC1)c1c(Cl)ccc2nc(N3C[C@@H]4CN[C@H]3C4)ccc12 (stereo partly shown) [Compound 460] | 8.91
CC(=O)N1C[C@@H]2C[C@H]1N(c1ccc3c(C(=O)NCC(c4cnc(C(F)(F)F)nc4)N4CCOCC4)c(Cl)ccc3n1)C2 (stereo partly shown) [Compound 461] | 107
CCN(CC)c1ccc2c(C(=O)NCC(c3cnc(C(F)(F)F)nc3)N3CCOCC3)c(Cl)ccc2n1 (stereo not shown) [Compound 462] | 9.12
O=C(O)CCCNc1ccc2c(C(=O)NCC(c3cnc(C(F)(F)F)nc3)N3CCOCC3)c(Cl)ccc2n1 (stereo not shown) [Compound 463] | 380
O=C(NCC(c1cnc(C(F)(F)F)nc1)N1CCOCC1)c1c(Cl)ccc2nc(N3CCC(C(=O)O)CC3)ccc12 (stereo not shown) [Compound 464] | 117
O=C(NCC(c1cnc(C(F)(F)F)nc1)N1CCC(F)(F)CC1)c1c(Cl)ccc2nc(N3CC(O)C3)ccc12 (stereo not shown) [Compound 465] | 7.76
O=C(NCC(c1cnc(C(F)(F)F)nc1)N1CCC(F)(F)CC1)c1c(Cl)ccc2nc(N3CCCOCC3)ccc12 (stereo not shown) [Compound 466] | 8.13
CCC(C)Nc1ccc2c(C(=O)NCC(c3cnc(C(F)(F)F)nc3)N3CCC(F)(F)CC3)c(Cl)ccc2n1 (stereo not shown) [Compound 467] | 6.92
O=C(NCC(c1cnc(C(F)(F)F)nc1)N1CCC(F)(F)CC1)c1c(Cl)ccc2nc(NC3CCOCC3)ccc12 (stereo not shown) [Compound 468] | 22.4
O=C(NCC(c1cnc(C(F)(F)F)nc1)N1CCC(F)(F)CC1)c1c(Cl)ccc2nc(N3CC[C@@H](O)C3)ccc12 (stereo partly shown) [Compound 484] | 7.76
O=C(NCC(c1cnc(C(F)(F)F)nc1)N1CCC(F)(F)CC1)c1c(Cl)ccc2nc(N3CCNCC3)ccc12 (stereo not shown) [Compound 485] | 2.24
CC(C)Nc1ccc2c(C(=O)NCC(c3cnc(C(F)(F)F)nc3)N3CCC(F)(F)CC3)c(Cl)ccc2n1 (stereo not shown) [Compound 491] | 3.8
CNc1ccc2c(C(=O)NCC(c3cnc(C(F)(F)F)nc3)N3CCC(F)(F)CC3)c(Cl)ccc2n1 (stereo not shown) [Compound 492] | 2.45
O=C(NCC(c1cnc(C(F)(F)F)nc1)N1CCC(F)(F)CC1)c1c(Cl)ccc2nc(NC3CC3)ccc12 (stereo not shown) [Compound 493] | 8.71
C[C@@H]1CN(c2ccc3c(C(=O)NCC(c4cnc(C(F)(F)F)nc4)N4CCC(F)(F)CC4)c(Cl)ccc3n2)C[C@H](C)O1 (stereo partly shown) [Compound 494] | 14.1
O=C(NCC(c1cnc(C(F)(F)F)nc1)N1CCC(F)(F)CC1)c1c(Cl)ccc2nc(NCCO)ccc12 (stereo not shown) [Compound 495] | 7.41
CC(C)Nc1ccc2c(C(=O)NCC(c3cnc(C(F)(F)F)nc3)N3CCOCC3)c(Cl)ccc2n1 (stereo not shown) [Compound 496] | 6.61
O=C(NCC(c1cnc(C(F)(F)F)nc1)N1CCOCC1)c1c(Cl)ccc2nc(NCC3CC3)ccc12 (stereo not shown) [Compound 497] | 6.17
O=C(NCC(c1cnc(C(F)(F)F)nc1)N1CCOCC1)c1c(Cl)ccc2nc(NCCO)ccc12 (stereo not shown) [Compound 498] | 9.12
O=C(NCC(c1cnc(C(F)(F)F)nc1)N1CCOCC1)c1c(Cl)ccc2nc(N3CC[C@@H](O)C3)ccc12 (stereo partly shown) [Compound 499] | 20.9
CNc1ccc2c(C(=O)NCC(c3cnc(C(F)(F)F)nc3)N3CCOCC3)c(Cl)ccc2n1 (stereo not shown) [Compound 500] | 10.2
O=C(NCC(c1cnc(C(F)(F)F)nc1)N1CCOCC1)c1c(Cl)ccc2nc(NC3CC3)ccc12 (stereo not shown) [Compound 501] | 10.2
O=C(NCC(c1cnc(C(F)(F)F)nc1)N1CCOCC1)c1c(Cl)ccc2nc(N3CCOCC3)ccc12 (stereo not shown) [Compound 502] | 13.8
C[C@@H]1CN(c2ccc3c(C(=O)NCC(c4cnc(C(F)(F)F)nc4)N4CCOCC4)c(Cl)ccc3n2)C[C@H](C)O1 (stereo partly shown) [Compound 503] | 37.2

SMILES | IC50 [nM]
O=C(NCC(c1cnc(C(F)(F)F)nc1)N1CCOCC1)c1c(Cl)ccc2nc(N3CCNCC3)ccc12 (stereo not shown) [Compound 504] | 6.92
CN1CCN(c2ccc3c(C(=O)NCC(c4cnc(C(F)(F)F)nc4)N4CCOCC4)c(Cl)ccc3n2)CC1 (stereo not shown) [Compound 505] | 5.13
O=C(NCC(c1cnc(C(F)(F)F)nc1)N1CCOCC1)c1c(Cl)ccc2nc(N3CC[C@H](O)C3)ccc12 (stereo partly shown) [Compound 506] | 18.2
O=C(NCC(c1cnc(C(F)(F)F)nc1)N1CCC(F)(F)CC1)c1c(Cl)ccc2nc(NCC3CC3)ccc12 (stereo not shown) [Compound 507] | 13.5
O=C(NCC(c1cnc(C(F)(F)F)nc1)N1CCC(F)(F)CC1)c1c(Cl)ccc2nc(NCC(O)CO)ccc12 (stereo not shown) [Compound 508] | 25.7
O=C(NCC(c1cnc(C(F)(F)F)nc1)N1CCC(F)(F)CC1)c1c(Cl)ccc2nc(N3CC(O)(C(F)(F)F)C3)ccc12 (stereo not shown) [Compound 509] | 17.8
O=C(NCC(c1cnc(C(F)(F)F)nc1)N1CCC(F)(F)CC1)c1c(Cl)ccc2nc(N3CC(CO)C3)ccc12 (stereo not shown) [Compound 510] | 3.47
CN(CCN)c1ccc2c(C(=O)NCC(c3cnc(C(F)(F)F)nc3)N3CCC(F)(F)CC3)c(Cl)ccc2n1 (stereo not shown) [Compound 511] | 4.79
NC1CN(c2ccc3c(C(=O)NCC(c4cnc(C(F)(F)F)nc4)N4CCOCC4)c(Cl)ccc3n2)C1 (stereo not shown) [Compound 512] | 5.37
O=C(NCC(c1cnc(C(F)(F)F)nc1)N1CCC(F)(F)CC1)c1c(Cl)ccc2nc(NCCN3CCOCC3)ccc12 (stereo not shown) [Compound 513] | 5.13
O=C(NCC(c1cnc(C(F)(F)F)nc1)N1CCOCC1)c1c(Cl)ccc2nc(NCCNCCO)ccc12 (stereo not shown) [Compound 514] | 7.59
O=C(NCC(c1cnc(C(F)(F)F)nc1)N1CCC(F)(F)CC1)c1c(Cl)ccc2nc(N3CCC(c4n[nH]c(=O)[nH]4)CC3)ccc12 (stereo not shown) [Compound 515] | 5.62
CC1(O)CCN(c2ccc3c(C(=O)NCC(c4cnc(C(F)(F)F)nc4)N4CCOCC4)c(Cl)ccc3n2)CC1 (stereo not shown) [Compound 516] | 9.77
CNCCN(C)c1ccc2c(C(=O)NCC(c3cnc(C(F)(F)F)nc3)N3CCC(F)(F)CC3)c(Cl)ccc2n1 (stereo not shown) [Compound 517] | 8.51
O=C(NCC(c1cnc(C(F)(F)F)nc1)N1CCC(F)(F)CC1)c1c(Cl)ccc2nc(N3CCC(n4cn[nH]c4=O)CC3)ccc12 (stereo not shown) [Compound 518] | 10.2
O=C(NCC(c1cnc(C(F)(F)F)nc1)N1CCOCC1)c1c(Cl)ccc2nc(N3CCC4(CCCN4)C3)ccc12 (stereo not shown) [Compound 519] | 7.08
O=C(NCC(c1cnc(C(F)(F)F)nc1)N1CCOCC1)c1c(Cl)ccc2nc(N3CCC4(CCCCN4)C3)ccc12 (stereo not shown) [Compound 520] | 9.55
NCC1CCN(c2ccc3c(C(=O)NCC(c4cnc(C(F)(F)F)nc4)N4CCOCC4)c(Cl)ccc3n2)CC1 (stereo not shown) [Compound 521] | 13.8
CNC1CN(c2ccc3c(C(=O)NCC(c4cnc(C(F)(F)F)nc4)N4CCOCC4)c(Cl)ccc3n2)C1 (stereo not shown) [Compound 522] | 24.5
CN(CCN)c1ccc2c(C(=O)NCC(c3cnc(C(F)(F)F)nc3)N3CCOCC3)c(Cl)ccc2n1 (stereo not shown) [Compound 523] | 15.8
O=C(NCC(c1cnc(C(F)(F)F)nc1)N1CCOCC1)c1c(Cl)ccc2nc(N3CC4(CNC4)C3)ccc12 (stereo not shown) [Compound 524] | 30.2
O=C(NCC(c1cnc(C(F)(F)F)nc1)N1CCOCC1)c1c(Cl)ccc2nc(N3CC4COCC4C3)ccc12 (stereo not shown) [Compound 525] | 52.5
O=C(NCC(c1cnc(C(F)(F)F)nc1)N1CCOCC1)c1c(Cl)ccc2nc(N3C[C@@H]4C[C@H]3CO4)ccc12 (stereo partly shown) [Compound 526] | 56.2
O=C(NCC(c1cnc(C(F)(F)F)nc1)N1CCOCC1)c1c(Cl)ccc2nc(NCC3CCOCC3)ccc12 (stereo not shown) [Compound 527] | 77.6
NCC1CCN(c2ccc3c(C(=O)NCC(c4cnc(C(F)(F)F)nc4)N4CCC(F)(F)CC4)c(Cl)ccc3n2)CC1 (stereo not shown) [Compound 528] | 4.57
O=C(NCC(c1cnc(C(F)(F)F)nc1)N1CCC(F)(F)CC1)c1c(Cl)ccc2nc(N3CCC4(CCCCN4)C3)ccc12 (stereo not shown) [Compound 529] | 5.62
